Experimental data as given in patent US8003630B2, “Combinatorial therapies for the treatment of neoplasias using the opioid growth factor receptor” (The Penn State Research Foundation, priority 2004, dated 2011).

Tests used:
[1] = metabolized primarily in the liver; cited from earlier work
[2] = system: carcinomas of the colon and rectum; conditions: single agent; cited from earlier work
MiaPaCa-2 cells = assay: Growth curves of MiaPaCa-2 cells, cell proliferation (MTT) assay, absorbency; conditions: for Significance from 5-FU 10^−6 M Values: 5-FU 10^−5 M alone or with OGF; for Significance from 5-FU 10^−5 M Values: 5-FU 10^−6 M alone or with OGF (b: 5-FU 10^−5 M more inhibitory); for decrease in cell number from controls: MiaPaCa-2
Excerpt: Cells were counted using a standard MTT assay. In general, each data point represents the average absorbency taken from 10 wells/treatment; error bars represent the S.E.M.

Structure (SMILES): O=c1[nH]cc(F)c(=O)[nH]1 [5-FU, 5-fluorouracil]
- drug appearing unchanged in urine [1]: 10%
- mean response rate [2]: less than 20%
- Significance from 5-FU 10^−6 M Values (MiaPaCa-2 cells; 48 h): ###^b (Significantly different from 5-FU 10^−6 M at p < 0.001 (###))
- Significance from 5-FU 10^−5 M Values (MiaPaCa-2 cells; 48 h): ^^^^b (Significantly different from 5-FU 10^−5 M at p < 0.001)
- Significance from 5-FU 10^−6 M Values (MiaPaCa-2 cells; 72 h): ###^b (Significantly different from 5-FU 10^−6 M at p < 0.001 (###))
- Significance from 5-FU 10^−5 M Values (MiaPaCa-2 cells; 72 h): ^^^^b (Significantly different from 5-FU 10^−5 M at p < 0.001)
- Significance from 5-FU 10^−6 M Values (MiaPaCa-2 cells; 96 h): ###^b (Significantly different from 5-FU 10^−6 M at p < 0.001 (###))
- Significance from 5-FU 10^−5 M Values (MiaPaCa-2 cells; 96 h): ^^^^b (Significantly different from 5-FU 10^−5 M at p < 0.001)
- decrease in cell number from controls (MiaPaCa-2 cells; 48 h, 5-FU 10^-5 M and/or OGF 10^−6 M): 26.0%
- decrease in cell number from controls (MiaPaCa-2 cells; 48 h, 5-FU 10^-6 M alone or with OGF 10^−6 M): 12.7%
- decrease in cell number from controls (MiaPaCa-2 cells; 72 h, 5-FU 10^-5 M and/or OGF 10^−6 M): 30.1%
- decrease in cell number from controls (MiaPaCa-2 cells; 72 h, 5-FU 10^-6 M alone or with OGF 10^−6 M): 10.8%
- decrease in cell number from controls (MiaPaCa-2 cells; 96 h, 5-FU 10^-5 M and/or OGF 10^−6 M): 36.4%
- decrease in cell number from controls (MiaPaCa-2 cells; 96 h, 5-FU 10^-6 M alone or with OGF 10^−6 M): 15.2%
